From US20230203004A1, “RSV INHIBITING 3-SUBSTITUTED QUINOLINE AND CINNOLINE DERIVATIVES” (Janssen Sciences Ireland Unlimited Company, priority 2020, published 2023)

Tests used:
rgRSV224 virus = assay: Antiviral activity: rgRSV224 (GFP) replication in HeLa cells; format: cell-based, respiratory syncytial virus (RSV); details: human respiratory syncytial virus, HeLa, 72 h, read-out: RSV HELA EC50, HeLa cells, rgRSV224 MOI = 1, GFP expression three days post-virus exposure; averaged data of several repeat experiments
Summary of the method: (§1)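 Over 3 days at 37 °C, compound titrations (4-fold steps, nine dilutions) were tested on HeLa cells infected with rgRSV224 (MOI = 1), inhibition of GFP signal giving EC50. In parallel plates, ATP content of HeLa cells after 3-day exposure defined CC50.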

[1] = Cytotoxicity in HeLa cells (ATP content, ATPlite kit); format: cell-based; details: human, TOX HELA CC50
Summary of the method: as §1

Structure (SMILES) | EC50 (rgRSV224 virus) | CC50 at 3 days [1]
COc1cc(C(=O)NC[C@](O)(c2cc(C(C)(C)O)c(F)c(-c3ccc(C(F)(F)F)cc3)n2)C(F)(F)F)cc2cc(C)nnc12 [compound 274, (-)Methoxy-3-Methyl-N-(3,3,3-Trifluoro-2-(5-Fluoro-4-(2-Hydroxypropan-2-yl)-6-(4-(Trifluoromethyl)Phenyl)pyridin-2-yl)-2-Hydroxypropyl)Cinnoline-6-Carboxamide] | 1.48 nM | 11 µM
COc1cc(C(=O)NC[C@@](O)(c2cc(C(C)(C)O)c(F)c(-c3ccc(F)cc3)n2)C2CC2)cc2cc(C)nnc12 [compound 275] | 97 nM | 17 µM
COc1cc(C(=O)NC[C@](O)(c2cc(C(C)(C)NS(C)(=O)=O)c(Cl)c(-c3ccc(F)cc3)n2)C(F)(F)F)cc2cc(C)nnc12 [compound 276, (-)-N-{2-[5-Chloro-6-(4-Fluorophenyl)-4-{2-[(Methanesulfonyl)Amino]Propan-2-yl}Pyridin-2-yl]-3,3,3-Trifluoro-2-Hydroxypropyl}-8-Methoxy-3-Methylcinnoline-6-Carboxamide] | 3.8 nM | 51 µM
COc1cc(C(=O)NC[C@](O)(c2cc(C(C)(C)O)c(Cl)c(-c3ccc(F)cc3)n2)C(F)(F)F)cc2cc(C(F)(F)F)nnc12 [compound 277] | 16 nM | 15 µM
COc1cc(C(=O)NC[C@](O)(c2cc(C(C)(C)O)c(F)c(-c3ccc(Cl)cc3)n2)C2CC2)cc2cc(C)nnc12 [compound 278] | 0.65 nM | 29 µM
COc1cc(C(=O)NC[C@@](O)(c2nc(-c3ccc(F)cc3)cc(C(C)(C)O)c2F)C(F)(F)F)cc2cc(C)nnc12 [compound 280, (+)Methoxy-3-Methyl-N-(3.3.3-Trifluoro-2-(3-Fluoro-6-(4-Fluorophenyl)-4-(2-Hydroxypropan-2-yl)Pyridm-2-yl)-2-Hydroxypropyl)Cinnoline-6-Carboxamide] | 449 nM | 9.4 µM
COc1cc(C(=O)NC[C@](O)(c2nc(-c3ccc(F)cc3)cc(C(C)(C)O)c2F)C(F)(F)F)cc2cc(C)nnc12 [compound 281, (-)Methoxy-3-Methyl-N-(3,3,3-Trifluoro-2-(3-Fluoro-6-(4-Fluorophenyl)-4-(2-Hydroxypropan-2-yl)Pyridin-2-yl)-2-Hydroxypropyl)Cinnoline-6-Carboxarmide] | 29 nM | 24 µM
COc1cc(C(=O)NC[C@](O)(c2cc(C(C)(C)O)c(Cl)c(-c3ccc(F)cc3)n2)C2CC2)cc2cc(C3CC3)nnc12 [compound 282] | 3.2 nM | 13 µM
COc1cc(C(=O)NC[C@](O)(c2cc(C(C)(C)O)c(F)c(-c3ccc(F)cc3)n2)C(C)C)cc2cc(C3CC3)nnc12 [compound 283, (-)Cyclopropyl-N-(2-(5-Fluoro-6-(4-Fluorophenyl)-4-(2-Hydroxypropan-2-yl)Pyridin-2-yl)-2-HydroxyMethylbutyl)-8-Methoxycinnoline-6-Carboxamide] | 8.5 nM | 12 µM
COc1cc(C(=O)NC[C@](O)(c2cc(C(C)(C)O)c(F)c(-c3ccc(F)cc3)n2)C2CC2)cc2cc(C(F)(F)F)nnc12 [compound 284] | 4.8 nM | 16 µM
COc1cc(C(=O)NC[C@](O)(c2cc(C(C)(C)O)c(F)c(-c3ccc(F)cc3)n2)C(C)C)cc2cc(C(F)F)nnc12 [compound 285, (S)(Difluoromethyl)-N-(2-(5-Fluoro-6-(4-Fluorophenyl)-4-(2-Hydroxypropan-2-yl)Pyridin-2-yl)-2-HydroxyMethylbutyl)-8-Methoxycinnoline-6-Carboxamide] | 6.5 nM | 16 µM
COc1cc(C(=O)NC[C@](O)(c2cc(C(C)(C)O)c(F)c(-c3ccc(F)cc3)n2)C(F)(F)F)cc2cc(C3CC3)nnc12 [compound 286, (-)Cyclopropyl-8-Methoxy-N-(3,3,3-Trifluoro-2-(5-Fluoro-6-(4-Fluorophenyl)-4-(2-Hydroxypropan-2-yl)Pyridin-2-yl)-2-Hydroxypropyl)Cinnoline-6-Carboxamide] | 2.6 nM | 8.9 µM
